Literature values, collected in patent US5348950A, “Platinum(II) complex and antitumor agent” (Toray Industries, Inc., priority 1991, dated 1994).

Settings: background statement

SMILES	anti-tumor activity	side effects
N.N.O=C([O-])C1(C(=O)[O-])CCC1.[Pt+2] [CBDCA, cisdiammine(1,1-cyclobutanedicarboxylato)platinum(II)]	low anti-tumor activity	
N.N.[Cl][Pt][Cl] [CDDP, cisdiamminedichloroplatinum(II)]		strong side effects
